Source: patent US6696427B1, “Use of bisphosphonates for the prevention and treatment of infectious processes” (Jomaa Pharmaka GmbH, priority 1998, dated 2004)

System: γδ-T cells
Assay: activatability of γδ-T cells in mononuclear cells isolated from blood of treated test subjects
Format: in vivo, human
Protocol: […] After the third infusion, a blood sample was taken from the subjects. The mononuclear cells were isolated from the blood. The activatability of the γδ-T cells was then tested. A full description is published in Jomaa et al. FEMS Immunol. Med. Microbiol. September 1999; 25(4); 371-8.
In contrast, cells from control subjects could be activated.

Compound: CCCCCN(C)CCC(O)(P(=O)(O)O)P(=O)(O)O [ibandronic acid, 3-methylpentylamino-1-hydroxypropylidene-1,1-bisphosphonic acid]
- γδ-T cell activation by antigens obtained from microorganisms (test subjects, 1 mg per treatment, protocol from Example 1): no γδ-T cell activation

Compound: NCCC(O)(P(=O)(O)O)P(=O)(O)O [pamidronic acid, 3-amino-1-hydroxypropylidene-1,1-bisphosphonic acid]
- γδ-T cell activation by antigens obtained from microorganisms (healthy test subjects, infusion of 90 mg at fortnightly intervals, blood sample after the third infusion, isolated mononuclear cells): no γδ-T cell activation
